Structures are written as SMILES. In brackets after ≈: the same amount, converted by molar mass. Bounds are passed on as bounds.

One assay has as its system E. faecalis ATCC 29212. In words: MIC against E. faecalis ATCC 29212. The class given is cell-based. To be noted: Enterococcus faecalis, ATCC29212.
In the case of `CSC1O[C@H]([C@H](NC(=O)[C@H]2NC[C@@H]3C=C(c4ccccc4)CCO[C@@H]23)[C@H](C)Cl)C(O)[C@@H](O)[C@H]1O` (stereo partly shown) [FSA-507031], the MIC was over 32 µg/mL.
In turn, `C[C@@H](O)[C@@H](NC(=O)[C@H]1NC[C@@H]2CC=CCO[C@H]21)[C@H]1OC(CN=[N+]=[N-])[C@H](O)[C@H](O)C1O` (stereo partly shown) [FSA-211064] showed an MIC of over 64 µg/mL.

Another assay deals with C. difficile BAA 1805. As to the kind of experiment: MIC against C. difficile BAA 1805. To be noted: Clostridioides difficile, BAA1805. The class given is cell-based.
`CSC1O[C@H]([C@H](NC(=O)[C@H]2NC[C@@H]3C=C(c4ccccc4)CCO[C@@H]23)[C@H](C)Cl)C(O)[C@@H](O)[C@H]1O` (stereo partly shown) [FSA-507031] displayed an MIC of over 32 µg/mL.

The next assay has as its system E. coli ATCC 25922. In words: MIC against E. coli ATCC 25922. It counts as cell-based. To be noted: Escherichia coli, ATCC25922.
For the compound `CSC1O[C@H]([C@H](NC(=O)[C@H]2NC[C@@H]3C=C(c4ccccc4)CCO[C@@H]23)[C@H](C)Cl)C(O)[C@@H](O)[C@H]1O` (stereo partly shown) [FSA-507031], the MIC is over 32 µg/mL.
Turning to `C[C@@H](O)[C@@H](NC(=O)[C@H]1NC[C@@H]2CC=CCO[C@H]21)[C@H]1OC(CN=[N+]=[N-])[C@H](O)[C@H](O)C1O` (stereo partly shown) [FSA-211064], the MIC is over 64 µg/mL.

The next assay concerns P. aeruginosa MMX Mex parent strain. In words: MIC against P. aeruginosa MMX Mex parent strain. To be noted: Pseudomonas aeruginosa. The class given is cell-based.
Turning to `CSC1O[C@H]([C@H](NC(=O)[C@H]2NC[C@@H]3C=C(c4ccccc4)CCO[C@@H]23)[C@H](C)Cl)C(O)[C@@H](O)[C@H]1O` (stereo partly shown) [FSA-507031], the MIC is over 32 µg/mL.
Take `C[C@@H](O)[C@@H](NC(=O)[C@H]1NC[C@@H]2CC=CCO[C@H]21)[C@H]1OC(CN=[N+]=[N-])[C@H](O)[C@H](O)C1O` (stereo partly shown) [FSA-211064]: the MIC is over 64 µg/mL.

For the next assay, the system named is S. aureus MMX 3035 cErmA. As to the kind of experiment: MIC against S. aureus MMX 3035 cErmA. To be noted: Staphylococcus aureus, MMX3035CERMA. It counts as cell-based.
In turn, `CSC1O[C@H]([C@H](NC(=O)[C@H]2NC[C@@H]3C=C(c4ccccc4)CCO[C@@H]23)[C@H](C)Cl)C(O)[C@@H](O)[C@H]1O` (stereo partly shown) [FSA-507031] displayed an MIC of over 32 µg/mL.
On the same count and under the same terms, next, `C[C@@H](O)[C@@H](NC(=O)[C@H]1NC[C@@H]2CC=CCO[C@H]21)[C@H]1OC(CN=[N+]=[N-])[C@H](O)[C@H](O)C1O` (stereo partly shown) [FSA-211064]: over 64 µg/mL.

Another assay has as its system S. pneumoniae MMX 3028 cErmB. In words: MIC against S. pneumoniae MMX 3028 cErmB. The class given is cell-based. To be noted: Streptococcus pneumoniae, MMX3028CERMB.
As to `CSC1O[C@H]([C@H](NC(=O)[C@H]2NC[C@@H]3C=C(c4ccccc4)CCO[C@@H]23)[C@H](C)Cl)C(O)[C@@H](O)[C@H]1O` (stereo partly shown) [FSA-507031], the MIC is over 32 µg/mL.
The compound `C[C@@H](O)[C@@H](NC(=O)[C@H]1NC[C@@H]2CC=CCO[C@H]21)[C@H]1OC(CN=[N+]=[N-])[C@H](O)[C@H](O)C1O` (stereo partly shown) [FSA-211064] gave an MIC of over 64 µg/mL.

The test system of another assay is S. pyogenes ATCC 19615. As to the kind of experiment: MIC against S. pyogenes ATCC 19615. The class given is cell-based. To be noted: Streptococcus pyogenes, ATCC19615; S. pyogenes ATCC 19615; read-out: MIC.
On to `C[C@@H](O)[C@@H](NC(=O)[C@H]1NC[C@@H]2CC=CCO[C@H]21)[C@H]1OC(CN=[N+]=[N-])[C@H](O)[C@H](O)C1O` (stereo partly shown) [FSA-211064], for which the MIC is 4 µg/mL (≈ 9.36 µM).

The next assay relates to S. aureus Micromyx USA 300. As to the kind of experiment: MIC against S. aureus Micromyx USA 300. It counts as cell-based. To be noted: Staphylococcus aureus, USA300.
`CSC1O[C@H]([C@H](NC(=O)[C@H]2NC[C@@H]3C=C(c4ccccc4)CCO[C@@H]23)[C@H](C)Cl)C(O)[C@@H](O)[C@H]1O` (stereo partly shown) [FSA-507031] gave an MIC of over 32 µg/mL.
Take `C[C@@H](O)[C@@H](NC(=O)[C@H]1NC[C@@H]2CC=CCO[C@H]21)[C@H]1OC(CN=[N+]=[N-])[C@H](O)[C@H](O)C1O` (stereo partly shown) [FSA-211064]: the MIC is over 64 µg/mL.

In a further assay the test system is P. aeruginosa ATCC 27853. As to the kind of experiment: MIC against P. aeruginosa ATCC 27853. The class given is cell-based. To be noted: Pseudomonas aeruginosa, ATCC27853.
In turn, `CSC1O[C@H]([C@H](NC(=O)[C@H]2NC[C@@H]3C=C(c4ccccc4)CCO[C@@H]23)[C@H](C)Cl)C(O)[C@@H](O)[C@H]1O` (stereo partly shown) [FSA-507031] returned an MIC of over 32 µg/mL.
In turn, `C[C@@H](O)[C@@H](NC(=O)[C@H]1NC[C@@H]2CC=CCO[C@H]21)[C@H]1OC(CN=[N+]=[N-])[C@H](O)[C@H](O)C1O` (stereo partly shown) [FSA-211064] returned an MIC of over 64 µg/mL.

The test system of a further assay is P. aeruginosa MMX 3476 Δmex. In words: MIC against P. aeruginosa MMX 3476 Δmex. The class given is cell-based. To be noted: Pseudomonas aeruginosa.
For `CSC1O[C@H]([C@H](NC(=O)[C@H]2NC[C@@H]3C=C(c4ccccc4)CCO[C@@H]23)[C@H](C)Cl)C(O)[C@@H](O)[C@H]1O` (stereo partly shown) [FSA-507031], the MIC was over 32 µg/mL.
`C[C@@H](O)[C@@H](NC(=O)[C@H]1NC[C@@H]2CC=CCO[C@H]21)[C@H]1OC(CN=[N+]=[N-])[C@H](O)[C@H](O)C1O` (stereo partly shown) [FSA-211064] had an MIC of over 64 µg/mL.

The next assay has as its system S. aureus BAA 977 iErmA. As to the kind of experiment: MIC against S. aureus BAA 977 iErmA. It counts as cell-based. To be noted: Staphylococcus aureus, BAA977.
In the case of `CSC1O[C@H]([C@H](NC(=O)[C@H]2NC[C@@H]3C=C(c4ccccc4)CCO[C@@H]23)[C@H](C)Cl)C(O)[C@@H](O)[C@H]1O` (stereo partly shown) [FSA-507031], the MIC is over 32 µg/mL.
The compound `C[C@@H](O)[C@@H](NC(=O)[C@H]1NC[C@@H]2CC=CCO[C@H]21)[C@H]1OC(CN=[N+]=[N-])[C@H](O)[C@H](O)C1O` (stereo partly shown) [FSA-211064] gave an MIC of over 64 µg/mL.

The next assay has as its system E. faecalis MMX 847 Macrolide-Resistant. In words: MIC against E. faecalis MMX 847 Macrolide-Resistant. The class given is cell-based. To be noted: Enterococcus faecalis.
In the case of `CSC1O[C@H]([C@H](NC(=O)[C@H]2NC[C@@H]3C=C(c4ccccc4)CCO[C@@H]23)[C@H](C)Cl)C(O)[C@@H](O)[C@H]1O` (stereo partly shown) [FSA-507031], the MIC was over 32 µg/mL.
In the case of `C[C@@H](O)[C@@H](NC(=O)[C@H]1NC[C@@H]2CC=CCO[C@H]21)[C@H]1OC(CN=[N+]=[N-])[C@H](O)[C@H](O)C1O` (stereo partly shown) [FSA-211064], the MIC is over 64 µg/mL.

The next assay deals with E. coli MMX 0121 ΔTolC. As to the kind of experiment: MIC against E. coli MMX 0121 ΔTolC. The class given is cell-based. To be noted: Escherichia coli.
For the compound `CSC1O[C@H]([C@H](NC(=O)[C@H]2NC[C@@H]3C=C(c4ccccc4)CCO[C@@H]23)[C@H](C)Cl)C(O)[C@@H](O)[C@H]1O` (stereo partly shown) [FSA-507031], the MIC was over 32 µg/mL.
Regarding `C[C@@H](O)[C@@H](NC(=O)[C@H]1NC[C@@H]2CC=CCO[C@H]21)[C@H]1OC(CN=[N+]=[N-])[C@H](O)[C@H](O)C1O` (stereo partly shown) [FSA-211064], the MIC was over 64 µg/mL.

The subject of the next assay is S. pyogenes MMX 946 Macrolide-Resistant. In words: MIC against S. pyogenes MMX 946 Macrolide-Resistant. The class given is cell-based. To be noted: Streptococcus pyogenes.
`CSC1O[C@H]([C@H](NC(=O)[C@H]2NC[C@@H]3C=C(c4ccccc4)CCO[C@@H]23)[C@H](C)Cl)C(O)[C@@H](O)[C@H]1O` (stereo partly shown) [FSA-507031] had an MIC of over 32 µg/mL.
Regarding `C[C@@H](O)[C@@H](NC(=O)[C@H]1NC[C@@H]2CC=CCO[C@H]21)[C@H]1OC(CN=[N+]=[N-])[C@H](O)[C@H](O)C1O` (stereo partly shown) [FSA-211064], the MIC was over 64 µg/mL.

In a further assay the test system is S. aureus ATCC 29213. In words: MIC against S. aureus ATCC 29213. It counts as cell-based. To be noted: Staphylococcus aureus, ATCC29213.
For the compound `CSC1O[C@H]([C@H](NC(=O)[C@H]2NC[C@@H]3C=C(c4ccccc4)CCO[C@@H]23)[C@H](C)Cl)C(O)[C@@H](O)[C@H]1O` (stereo partly shown) [FSA-507031], the MIC was over 32 µg/mL.
`C[C@@H](O)[C@@H](NC(=O)[C@H]1NC[C@@H]2CC=CCO[C@H]21)[C@H]1OC(CN=[N+]=[N-])[C@H](O)[C@H](O)C1O` (stereo partly shown) [FSA-211064] showed an MIC of over 64 µg/mL.

The subject of the next assay is H. influenzae ATCC 49247. In words: MIC against H. influenzae ATCC 49247. The class given is cell-based. To be noted: Haemophilus influenzae, ATCC49247.
The compound `C[C@@H](O)[C@@H](NC(=O)[C@H]1NC[C@@H]2CC=CCO[C@H]21)[C@H]1OC(CN=[N+]=[N-])[C@H](O)[C@H](O)C1O` (stereo partly shown) [FSA-211064] yielded an MIC of over 64 µg/mL.

The assay is the same for the next values; noted with them: Haemophilus influenzae, ATCC49247; H. influenzae ATCC 49247; read-out: MIC.
On to `CSC1O[C@H]([C@H](NC(=O)[C@H]2NC[C@@H]3C=C(c4ccccc4)CCO[C@@H]23)[C@H](C)Cl)C(O)[C@@H](O)[C@H]1O` (stereo partly shown) [FSA-507031], for which the MIC came out at 8 µg/mL (≈ 15.6 µM).

The subject of another assay is E. coli MMX TolC parent strain. In words: MIC against E. coli MMX TolC parent strain. The class given is cell-based. To be noted: Escherichia coli.
For the compound `CSC1O[C@H]([C@H](NC(=O)[C@H]2NC[C@@H]3C=C(c4ccccc4)CCO[C@@H]23)[C@H](C)Cl)C(O)[C@@H](O)[C@H]1O` (stereo partly shown) [FSA-507031], the MIC is over 32 µg/mL.
On to `C[C@@H](O)[C@@H](NC(=O)[C@H]1NC[C@@H]2CC=CCO[C@H]21)[C@H]1OC(CN=[N+]=[N-])[C@H](O)[C@H](O)C1O` (stereo partly shown) [FSA-211064], for which the MIC is over 64 µg/mL.

In the next assay the test system is B. fragilis ATCC 25285. In words: MIC against B. fragilis ATCC 25285. It counts as cell-based. To be noted: Bacteroides fragilis, ATCC25285.
In turn, `CSC1O[C@H]([C@H](NC(=O)[C@H]2NC[C@@H]3C=C(c4ccccc4)CCO[C@@H]23)[C@H](C)Cl)C(O)[C@@H](O)[C@H]1O` (stereo partly shown) [FSA-507031] showed an MIC of over 32 µg/mL.
In turn, `C[C@@H](O)[C@@H](NC(=O)[C@H]1NC[C@@H]2CC=CCO[C@H]21)[C@H]1OC(CN=[N+]=[N-])[C@H](O)[C@H](O)C1O` (stereo partly shown) [FSA-211064] registered an MIC of over 64 µg/mL.

These data come from patent publication US20220073554A1, “LINCOSAMIDE ANTIBIOTICS AND USES THEREOF” (President and Fellows of Harvard College, priority 2017, published 2022).
